Source: patent publication US7098217B2, “3,7-dihydro-purine-2,6-dione derivatives as CRF receptor ligands” (Bristol-Myers Squibb Company, priority 2001, dated 2006)

SMILES	melting point
CCc1nc2c(c(=O)n(C)c(=O)n2-c2ccc(Cl)cc2Cl)n1C(CC)CC [Example 1, 3-(2,4-dichlorophenyl)-8-ethyl-1-methyl-7-(3-pentyl)-3,7-dihydro-1H-purine-2,6-dione]	186 to 187 °C
CCCC(CCC)n1c(CC)nc2c1c(=O)n(C)c(=O)n2-c1ccc(Cl)cc1Cl [Example 2, 3-(2,4-dichlorophenyl)-8-ethyl-7-(4-heptyl)-1-methyl-3,7-dihydro-1H-purine-2,6-dione]	185 to 186 °C
C=CCC(CC=C)n1c(CC)nc2c1c(=O)n(C)c(=O)n2-c1ccc(Cl)cc1Cl [Example 4, 7-(1-allyl-3-butenyl)-3-(2,4-dichlorophenyl)-8-ethyl-1-methyl-3,7-dihydro-1H-purine-2,6-dione]	145 to 146 °C
CCC(CC)n1cnc2c1c(=O)n(C)c(=O)n2-c1ccc(Cl)cc1Cl [Example 5, 3-(2,4-dichlorophenyl)-1-methyl-7-(3-pentyl)-3,7-dihydro-1H-purine-2,6-dione]	158 to 159 °C
CCc1nc2c(c(=O)n(C)c(=O)n2-c2ccc(Cl)cc2Cl)n1Cc1ccc(OC)cc1 [Example 7, 3-(2,4-dichlorophenyl)-8-ethyl-7-(4-methoxybenzyl)-1-methyl-3,7-dihydro-1H-purine-2,6-dione]	209 to 210 °C

Results, then the compound that gave them:

melting point	SMILES
195 to 195.5 °C	CCCC(CCC)n1c(CC)nc2c1c(=O)n(C)c(=O)n2-c1c(C)cc(C)cc1C [Example 79, 8-ethyl-7-(4-heptyl)-1-methyl-3-(2,4,6-trimethylphenyl)-3,7-dihydro-1H-purine-2,6-dione]
124 to 126 °C	CCCC(CCC)n1c(CC)nc2c1c(=O)n(C)c(=O)n2-c1c(OC)ccnc1C [Example 117, 8-ethyl-7-(4-heptyl)-3-(4-methoxy-2-methylpyrid-3-yl)-1-methyl-3,7-dihydro-1H-purine-2,6-dione]
